Test results reported in ChEMBL document CHEMBL1131703, “Azaindole derivatives with high affinity for the dopamine D4 receptor: synthesis, ligand binding studies and comparison of molecular electrostatic potential maps” (Bioorg Med Chem Lett, 1999).
pKi: −log10 of the molar value.

Columns and labels:
[1] = target: D(2) dopamine receptor (Bos taurus, UniProt P20288); assay: Binding affinity was evaluated for the displacement of [3H]spiperone against bovine Dopamine receptor D2
[2] = target: D(1A) dopamine receptor (Bos taurus, UniProt Q95136); assay: Binding affinity was evaluated for the displacement of [3H]-SCH- 23390 against bovine Dopamine receptor D1
[3] = target: D(3) dopamine receptor (Homo sapiens, UniProt P35462); assay: Binding affinity evaluated for the displacement of [3H]-spiperone against human dopamine receptor D3
[4] = target: T1, D(4) dopamine receptor (Homo sapiens, UniProt P21917); assay: Binding affinity evaluated for the displacement of [3H]spiperone against human dopamine receptor D4
T1 sequence (P21917 whole entry): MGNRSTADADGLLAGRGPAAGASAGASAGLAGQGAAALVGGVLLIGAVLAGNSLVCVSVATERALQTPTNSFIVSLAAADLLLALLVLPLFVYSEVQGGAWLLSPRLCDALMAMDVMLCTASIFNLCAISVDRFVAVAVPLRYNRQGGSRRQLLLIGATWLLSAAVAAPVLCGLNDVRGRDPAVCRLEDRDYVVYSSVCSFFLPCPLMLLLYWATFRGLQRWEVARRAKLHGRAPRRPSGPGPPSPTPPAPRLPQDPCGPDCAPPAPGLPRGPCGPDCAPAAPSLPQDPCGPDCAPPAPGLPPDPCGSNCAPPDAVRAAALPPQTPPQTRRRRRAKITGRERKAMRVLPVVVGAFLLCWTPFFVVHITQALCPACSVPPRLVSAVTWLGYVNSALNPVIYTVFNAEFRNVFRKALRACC

Chain of D(3) dopamine receptor (P35462 whole entry): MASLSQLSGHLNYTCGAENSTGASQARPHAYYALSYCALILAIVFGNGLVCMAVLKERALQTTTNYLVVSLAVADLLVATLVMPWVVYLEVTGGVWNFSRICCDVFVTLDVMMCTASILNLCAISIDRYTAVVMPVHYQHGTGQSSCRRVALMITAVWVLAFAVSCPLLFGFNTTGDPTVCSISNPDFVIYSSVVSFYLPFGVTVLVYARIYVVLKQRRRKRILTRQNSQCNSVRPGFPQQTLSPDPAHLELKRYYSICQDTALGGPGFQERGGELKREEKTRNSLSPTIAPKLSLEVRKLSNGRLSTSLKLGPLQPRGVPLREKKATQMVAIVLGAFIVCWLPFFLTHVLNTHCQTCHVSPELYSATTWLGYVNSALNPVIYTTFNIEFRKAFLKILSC
Chain of D(1A) dopamine receptor (Q95136 whole entry): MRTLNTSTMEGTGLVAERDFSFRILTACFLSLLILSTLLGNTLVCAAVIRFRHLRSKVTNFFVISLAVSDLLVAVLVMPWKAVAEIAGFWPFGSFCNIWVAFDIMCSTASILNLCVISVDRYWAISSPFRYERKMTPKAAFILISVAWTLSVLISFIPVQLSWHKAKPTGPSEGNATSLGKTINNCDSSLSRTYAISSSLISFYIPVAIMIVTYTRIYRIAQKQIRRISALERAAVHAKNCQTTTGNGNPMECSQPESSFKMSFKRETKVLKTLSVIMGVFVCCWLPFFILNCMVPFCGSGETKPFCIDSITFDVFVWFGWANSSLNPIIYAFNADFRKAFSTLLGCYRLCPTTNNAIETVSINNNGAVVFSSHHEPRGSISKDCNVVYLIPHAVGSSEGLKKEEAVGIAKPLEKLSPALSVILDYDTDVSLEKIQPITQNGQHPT
Chain of D(2) dopamine receptor (P20288 whole entry): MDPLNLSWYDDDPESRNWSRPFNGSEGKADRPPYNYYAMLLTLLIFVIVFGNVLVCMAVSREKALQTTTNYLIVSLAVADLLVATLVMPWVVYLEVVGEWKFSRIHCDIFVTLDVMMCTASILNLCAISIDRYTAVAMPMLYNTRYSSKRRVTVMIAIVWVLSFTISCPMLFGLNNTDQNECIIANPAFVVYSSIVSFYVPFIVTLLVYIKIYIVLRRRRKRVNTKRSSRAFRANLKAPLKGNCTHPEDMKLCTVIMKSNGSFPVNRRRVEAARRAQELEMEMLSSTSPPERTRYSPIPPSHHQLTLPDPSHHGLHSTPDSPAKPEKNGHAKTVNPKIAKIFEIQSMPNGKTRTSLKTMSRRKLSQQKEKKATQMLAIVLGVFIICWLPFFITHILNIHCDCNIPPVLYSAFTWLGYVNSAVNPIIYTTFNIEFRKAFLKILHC

| SMILES | pKi [1] | pKi [2] | pKi [3] | pKi [4] |
| --- | --- | --- | --- | --- |
| Ic1ccc(N2CCN(Cc3cnn4ccccc34)CC2)cc1 | 5.85 | 4.77 | 5.17 | 8.52 |
| O=C(c1cnn2ccccc12)N1CCN(c2ccc(Cl)cc2)CC1 | 4.52 | < 4.00 | 4.21 | 4.64 |
